Laboratory results: ChEMBL document CHEMBL3885881, “DrugMatrix”

Species: Rattus norvegicus
Test: DrugMatrix - Regimen: Daily Repeat
Type: toxicity, organism-based, Sprague-Dawley
Parameters: regimen Daily Repeat, gender Male, age 6-8 weeks
Conditions: in vivo, sc, […], route mini-PUMP - SUBCUTANEOUS, dose 0.44 mg/Kg, dose level High, vehicle 100 % SALINE; for ABSOLUTE BASOPHIL / ABSOLUTE EOSINOPHIL / ABSOLUTE LYMPHOCYTE / ABSOLUTE MONOCYTE / ABSOLUTE SEGMENTED NEUTROPHIL / BASOPHIL / EOSINOPHIL / ERYTHROCYTE COUNT / HEMATOCRIT / HEMOGLOBIN / LEUKOCYTE COUNT / LYMPHOCYTE / MEAN CORPUSCULAR HEMOGLOBIN / MEAN CORPUSCULAR HEMOGLOBIN CONCENTRATION / MEAN CORPUSCULAR VOLUME / MONOCYTE / NEUTROPHIL / NUCLEATED RED BLOOD CELLS / PLATELET COUNT: tissue Blood; for ALANINE AMINOTRANSFERASE / ALBUMIN / ALKALINE PHOSPHATASE / ASPARTATE AMINOTRANSFERASE / BLOOD UREA NITROGEN / CARBON DIOXIDE / CHLORIDE / CHOLESTEROL / CREATININE / GLUCOSE / LACTATE DEHYDROGENASE / LIPASE / PHOSPHORUS / POTASSIUM / SODIUM / TOTAL BILIRUBIN / TOTAL PROTEIN / URIC ACID: tissue Plasma

Q: What does the source list for `CNC[C@H](O)c1cccc(O)c1` [PHENYLEPHRINE]?
A: ABSOLUTE BASOPHIL (72 h, time 3 day): 0 CELLS/uL; ABSOLUTE EOSINOPHIL (72 h, time 3 day): 55.67 CELLS/uL; ABSOLUTE LYMPHOCYTE (72 h, time 3 day): 14419.33 CELLS/uL; ABSOLUTE MONOCYTE (72 h, time 3 day): 594.67 CELLS/uL; ABSOLUTE SEGMENTED NEUTROPHIL (72 h, time 3 day): 1063.67 CELLS/uL; BASOPHIL (72 h, time 3 day): 0%; EOSINOPHIL (72 h, time 3 day): 0.33%; ERYTHROCYTE COUNT (72 h, time 3 day): 5.8 x10E6/uL; HEMATOCRIT (72 h, time 3 day): 34.93%; HEMOGLOBIN (72 h, time 3 day): 13 G/DL; LEUKOCYTE COUNT (72 h, time 3 day): 16.13 x10E3/uL; LYMPHOCYTE (72 h, time 3 day): 89.33%; MEAN CORPUSCULAR HEMOGLOBIN (72 h, time 3 day): 22.43 pg; MEAN CORPUSCULAR HEMOGLOBIN CONCENTRATION (72 h, time 3 day): 37.23 G/DL; MEAN CORPUSCULAR VOLUME (72 h, time 3 day): 60.33 fL; MONOCYTE (72 h, time 3 day): 3.67%; NEUTROPHIL (72 h, time 3 day): 6.67%; NUCLEATED RED BLOOD CELLS (72 h, time 3 day): 0.33 /100WBC; PLATELET COUNT (72 h, time 3 day): 1250 x10E3/uL; ALANINE AMINOTRANSFERASE (72 h, time 3 day): 43.33 u/L; ALBUMIN (72 h, time 3 day): 3.87 G/DL; ALKALINE PHOSPHATASE (72 h, time 3 day): 289 u/L; ASPARTATE AMINOTRANSFERASE (72 h, time 3 day): 78.67 u/L; BLOOD UREA NITROGEN (72 h, time 3 day): 16 mg/dL; CARBON DIOXIDE (72 h, time 3 day): 25.67 mmol/L; CHLORIDE (72 h, time 3 day): 102.67 MEQ/L; CHOLESTEROL (72 h, time 3 day): 76 mg/dL; CREATININE (72 h, time 3 day): 0.16 mg/dL; GLUCOSE (72 h, time 3 day): 149 mg/dL; LACTATE DEHYDROGENASE (72 h, time 3 day): 363 u/L; LIPASE (72 h, time 3 day): 9.33 u/L; PHOSPHORUS (72 h, time 3 day): 13.17 mg/dL; POTASSIUM (72 h, time 3 day): 6.76 MEQ/L; SODIUM (72 h, time 3 day): 148.13 MEQ/L; TOTAL BILIRUBIN (72 h, time 3 day): 0.17 mg/dL; TOTAL PROTEIN (72 h, time 3 day): 6.13 G/DL; URIC ACID (72 h, time 3 day): 1.83 mg/dL; ABSOLUTE BASOPHIL (120 h, time 5 day): 0 CELLS/uL; ABSOLUTE EOSINOPHIL (120 h, time 5 day): 45.67 CELLS/uL; ABSOLUTE LYMPHOCYTE (120 h, time 5 day): 14706.67 CELLS/uL; ABSOLUTE MONOCYTE (120 h, time 5 day): 166.33 CELLS/uL; ABSOLUTE SEGMENTED NEUTROPHIL (120 h, time 5 day): 1714.67 CELLS/uL; BASOPHIL (120 h, time 5 day): 0%; EOSINOPHIL (120 h, time 5 day): 0.33%; ERYTHROCYTE COUNT (120 h, time 5 day): 6.03 x10E6/uL; HEMATOCRIT (120 h, time 5 day): 35.63%; HEMOGLOBIN (120 h, time 5 day): 13.2 G/DL; LEUKOCYTE COUNT (120 h, time 5 day): 16.63 x10E3/uL; LYMPHOCYTE (120 h, time 5 day): 88.33%; MEAN CORPUSCULAR HEMOGLOBIN (120 h, time 5 day): 21.9 pg; MEAN CORPUSCULAR HEMOGLOBIN CONCENTRATION (120 h, time 5 day): 37.03 G/DL; MEAN CORPUSCULAR VOLUME (120 h, time 5 day): 59.07 fL; MONOCYTE (120 h, time 5 day): 1%; NEUTROPHIL (120 h, time 5 day): 10.33%; NUCLEATED RED BLOOD CELLS (120 h, time 5 day): 0 /100WBC; PLATELET COUNT (120 h, time 5 day): 1498.33 x10E3/uL; ALANINE AMINOTRANSFERASE (120 h, time 5 day): 48.33 u/L; ALBUMIN (120 h, time 5 day): 3.97 G/DL; ALKALINE PHOSPHATASE (120 h, time 5 day): 321.67 u/L; ASPARTATE AMINOTRANSFERASE (120 h, time 5 day): 89.67 u/L; BLOOD UREA NITROGEN (120 h, time 5 day): 14 mg/dL; CARBON DIOXIDE (120 h, time 5 day): 27.67 mmol/L; CHLORIDE (120 h, time 5 day): 103.33 MEQ/L; CHOLESTEROL (120 h, time 5 day): 71 mg/dL; CREATININE (120 h, time 5 day): 0.15 mg/dL; GLUCOSE (120 h, time 5 day): 166 mg/dL; LACTATE DEHYDROGENASE (120 h, time 5 day): 145.33 u/L; LIPASE (120 h, time 5 day): 9 u/L; PHOSPHORUS (120 h, time 5 day): 12.6 mg/dL; POTASSIUM (120 h, time 5 day): 6.15 MEQ/L; SODIUM (120 h, time 5 day): 148.6 MEQ/L; TOTAL BILIRUBIN (120 h, time 5 day): 0.17 mg/dL; TOTAL PROTEIN (120 h, time 5 day): 6.1 G/DL; URIC ACID (120 h, time 5 day): 1.87 mg/dL; ABSOLUTE BASOPHIL (time 14 day): 0 CELLS/uL; ABSOLUTE EOSINOPHIL (time 14 day): 155 CELLS/uL; ABSOLUTE LYMPHOCYTE (time 14 day): 14503.4 CELLS/uL; ABSOLUTE MONOCYTE (time 14 day): 573 CELLS/uL; ABSOLUTE SEGMENTED NEUTROPHIL (time 14 day): 2768.6 CELLS/uL; BASOPHIL (time 14 day): 0%; EOSINOPHIL (time 14 day): 0.8%; ERYTHROCYTE COUNT (time 14 day): 6.23 x10E6/uL; HEMATOCRIT (time 14 day): 37.14%; HEMOGLOBIN (time 14 day): 13.54 G/DL; LEUKOCYTE COUNT (time 14 day): 18 x10E3/uL; LYMPHOCYTE (time 14 day): 80.8%; MEAN CORPUSCULAR HEMOGLOBIN (time 14 day): 21.72 pg; MEAN CORPUSCULAR HEMOGLOBIN CONCENTRATION (time 14 day): 36.46 G/DL; MEAN CORPUSCULAR VOLUME (time 14 day): 59.54 fL; MONOCYTE (time 14 day): 3.2%; NEUTROPHIL (time 14 day): 15.2%; NUCLEATED RED BLOOD CELLS (time 14 day): 0 /100WBC; PLATELET COUNT (time 14 day): 1175 x10E3/uL; ALANINE AMINOTRANSFERASE (time 14 day): 43.6 u/L; ALBUMIN (time 14 day): 4.1 G/DL; ALKALINE PHOSPHATASE (time 14 day): 276.2 u/L; ASPARTATE AMINOTRANSFERASE (time 14 day): 80 u/L; BLOOD UREA NITROGEN (time 14 day): 19.6 mg/dL; CARBON DIOXIDE (time 14 day): 29.4 mmol/L; CHLORIDE (time 14 day): 100.6 MEQ/L; CHOLESTEROL (time 14 day): 69.8 mg/dL; CREATININE (time 14 day): 0.23 mg/dL; GLUCOSE (time 14 day): 173.8 mg/dL; LACTATE DEHYDROGENASE (time 14 day): 166.4 u/L; LIPASE (time 14 day): 8.6 u/L; PHOSPHORUS (time 14 day): 13.24 mg/dL; POTASSIUM (time 14 day): 7.17 MEQ/L; SODIUM (time 14 day): 144.9 MEQ/L; TOTAL BILIRUBIN (time 14 day): 0.18 mg/dL; TOTAL PROTEIN (time 14 day): 6.42 G/DL; URIC ACID (time 14 day): 2.54 mg/dL
